# Target: T1, CRTH2 receptor (Homo sapiens, UniProt Q9Y5Y4)
# T1 construct: CD3+ cells were isolated from the rested PBMCs using Human T-Expander CD3/CD28 Dynabeads; endogenous in cells; host or cells: primary human CD3+/CD28+ T cells purified from PBMCs of healthy volunteers, expanded 10 days under TH2-skewing conditions
# T1 sequence (Q9Y5Y4 1-395): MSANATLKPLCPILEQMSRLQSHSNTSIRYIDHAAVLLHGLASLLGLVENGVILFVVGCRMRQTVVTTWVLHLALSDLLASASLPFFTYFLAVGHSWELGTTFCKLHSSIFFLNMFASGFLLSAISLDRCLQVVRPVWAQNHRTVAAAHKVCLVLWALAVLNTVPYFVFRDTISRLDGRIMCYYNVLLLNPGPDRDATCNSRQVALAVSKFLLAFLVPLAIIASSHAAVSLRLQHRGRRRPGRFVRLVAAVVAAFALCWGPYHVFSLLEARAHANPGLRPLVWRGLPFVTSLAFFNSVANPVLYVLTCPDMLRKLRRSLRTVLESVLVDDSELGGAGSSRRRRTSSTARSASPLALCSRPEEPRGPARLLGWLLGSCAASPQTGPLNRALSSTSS
# Experiment: CRTH2 assay: IL-13 expression (qPCR) in expanded, TH2-skewed T cells stimulated with PGD2 with or without CD3/CD28
# Type: cell-based
# Conditions: T cells from healthy human volunteers, increasing concentrations of PGD2, with CD3/CD28 stimulation (FIG. 4)
# Method: As discussed above, CRTH2 is a key regulator of TH2 cytokine expression and action. We developed a CRTH2 assay to determine the effects of the SNP, rs2786098, on CRTH2 expression and action. The CRTH2 assay was developed using the following protocol. PBMCs were thawed and placed into 10 ml of RPMI+20% FBS in 15 ml conical tubes. Tubes were closed tightly, and placed on a rocker in the incubator overnight. Viable cell counts were obtained the following day. CD3+ cells were isolated from the rested PBMCs using Human T-Expander CD3/CD28 Dynabeads. These magnetic beads were used to purify CD3+/CD28+ T cells from the PBMC mixture, and then left in the cell culture to provide stimulation and co-stimulation to induce expansion of the T cells. Purified T cells were cultured with the beads in the presence of IL-2, IL-4, anti-IFNγ, and anti-IL-12. IL-2 provides a proliferative stimulus, while IL-4, anti-IFNγ, and anti-IL-12 provide TH2 skewing conditions. Cells were cultured, and culture volume was increased as required, for 10 days, at which point, they were stimulated at 500,000 cells per well with the indicated stimuli for 8 hours. Cell pellets were harvested and RNA was extracted. Gene expression was determined by qPCR. […]
smiles,measurement,value
"CCCCC[C@H](O)/C=C/[C@H]1C(=O)C[C@H](O)[C@@H]1C/C=C\CCCC(=O)O [PGD2, Prostaglandin D2]",IL-13 production on stimulation,additional IL-13 was produced
